The test system of one assay is Ikaros. The assay can be described thus: Intracellular Ikaros expression in BCMA-bead stimulated anti-BCMA CAR T cells (flow cytometry, MFI). Format: cell-based, human. On the procedure: A BCMA-Fc fusion protein containing the extracellular domain of human BCMA and a human IgG1Fc was conjugated to beads by covalently coupling to the surface of commercially available tosyl-activated magnetic beads having a diameter of approximately […] (M-450 beads, ThermoFisher, Waltham Mass.) (see e.g. International published PCT App. No. WO2019/027850). Following incubation, anti-BCMA CAR-expressing T cells were stained with antibodies and analyzed by flow cytometry to assess intracellular levels of Ikaros and Aiolos in CD4+CAR+ or CD8+CAR+ cells, as measured by median fluorescence intensity (MFI). Median fluorescence intensity (MFI) values for Ikaros and Aiolos were normalized and calculated as a percentage relative to vehicle control.
(Flow cytometry measures light scatter and fluorescence of single cells or particles in a stream.)

A further assay has as its system RPMI-8226 target cells. The assay can be described thus: Rescue: rechallenge of chronically stimulated anti-BCMA CAR T cells with RPMI-8226 in the presence of compound. It counts as cell-based, human. Here is the method: Anti-BCMA CAR-expressing T cells, produced as described in Example 1, were stimulated with 50 μg BCMA conjugated beads (diameter about 4.5 μm from a 50 μg/ml BCMA-conjugated bead composition) substantially as described in Example 3 to induce chronic stimulation (to produce hypofunctional, exhausted T cells). After the chronic stimulation, the CAR-T cells were rechallenged with RPMI-8226 target cells (labeled with NucLightRed as described in Example 2) at a 1:1 (effector:target) ratio in the presence of (rescued) with Compound A (iberdomide, (S)-3-[4-(4-morpholin-4-ylmethyl-benzyloxy)-1-oxo-1,3-dihydro-isoindol-2-yl]-piperidine-2,6-dione) (1 nM or 10 nM), Compound B ((S)-4-(4-(4-(((2-(2,6-dioxopiperidin-3-yl)-1-oxoisoindolin-4-yl)oxy)methyl)benzyl)piperazin-1-yl)-3-fluorobenzonitrile) (0.1 nM or 1 nM), or DMSO vehicle control.
Killing activity and cytokine production were assessed as described in Example 3.
(§1) Studies were undertaken to determine whether Compound A (iberdomide, (S)-3-[4-(4-morpholin-4-ylmethyl-benzyloxy)-1-oxo-1,3-dihydro-isoindol-2-yl]-piperidine-2,6-dione) rescued anti-BCMA CAR T cell function following chronic stimulation. To directly stimulate via CAR engagement to induce chronic stimulation of cells, anti-BCMA CAR T cells were stimulated with BCMA conjugated beads (diameter about 4.5 μm from a 50 μg/ml BCMA-conjugated bead composition, generated as described in Example 9) at a ratio of T cells to beads of 1:1. The cells were then incubated at 37° C., 5% CO2 for 7 days.
Cultures were incubated at 37° C., 5% CO2, and images were taken every 2 hours over 5-7 days with an Essen IncuCyte Zoom live-cell analysis system to track NucLightRed-positive target cells.

For assay [1], the system named is IMiD/CELMoD resistant cell line DF-15R. The assay can be described thus: Rescue: rechallenge of chronically stimulated anti-BCMA CAR T cells with DF-15R. Format: cell-based, human. The settings on record: DF-15R rechallenge after 7-day chronic stimulation. On the procedure:
as §1
To further elucidate the role of Compound A on the target cells compared to the CAR T cell intrinsic effects, the IMiD/CELMoD resistant cell line DF-15R was also used to rechallenge anti-BCMA CAR T cells that had been chronically stimulated for 7 days. Cytolytic activity and cytokine production following the rechallenge were assessed as described above.

The test system of assay [2] is Irradiated DF-15R target cells. Description: Serial stimulation assay of anti-BCMA CAR T cells. It counts as cell-based, human. Here is the method:
A serial stimulation assay or serial re-challenge assay was used to assess activity of anti-BCMA CAR T cells following repeated rounds of antigen stimulation, in the presence and absence of Compound A (iberdomide, (S)-3-[4-(4-morpholin-4-ylmethyl-benzyloxy)-1-oxo-1,3-dihydro-isoindol-2-yl]-piperidine-2,6-dione).
Anti-BCMA CAR+ T cells (generated as described in Example 1) were plated in triplicate at 1×10^5 cells/well on 96-well plates. Irradiated DF-15R target cells, which is a multiple myeloma (MM) cell line generated to be resistant to effect of cell immunomodulatory compounds (Lopez-Girona et al. Leukemia, 2012; 26:2326-2335), were added at an effector-to-target (E:T) ratio of 1:2 in the presence or absence of various concentrations (10 nM) of Iberdomide.
Every 3-4 days (start of each new round), CAR T cells were counted. Cells then were harvested and re-plated at the initial seeding density with fresh media, newly-added Iberdomide at the same concentration, where applicable, and newly-thawed, irradiated target cells. Five rounds of stimulation were carried out during a 19 day culture period. At day 5 and day 9 (24 hours after a re-plating (reset) cytokine production in the supernatant was assessed. Results were assessed in two different donors.

Another assay deals with Aiolos and Ikaros. The settings on record: compared with lenalidomide and pomalidomide; cited from earlier work.
Where [3] appears, read: 24 hours after first reset (day 5) or second reset (day 9), FIG. 5B.

The structures appear in SMILES notation.

As for `O=C1CC[C@H](N2Cc3c(OCc4ccc(CN5CCOCC5)cc4)cccc3C2=O)C(=O)N1` [Compound A, (S)-3-[4-(4-morpholin-4-ylmethyl-benzyloxy)-1-oxo-1,3-dihydro-isoindol-2-yl]-piperidine-2,6-dione], in the assay with Ikaros (CD4+CAR+ or CD8+CAR+ cells, 24 or 72 hours, lenalidomide 1000 nM, Compound A 1, 10, 100 nM, Compound B 0.1, 1, 10 nM), the “intracellular Ikaros expression (MFI, percentage relative to vehicle control)” value is on record as “concentration dependent decrease”. Further, in the assay on Ikaros (stimulated anti-BCMA CAR T cells), the “potency in decreasing Ikaros and Aiolos expression, compared with lenalidomide” value was “more potent than lenalidomide”. In addition, the “rescue of chronically activated CAR T cells” value in the assay with RPMI-8226 target cells (Example 4: Compound A 1 or 10 nM, Compound B 0.1 or 1 nM during re-challenge) is given as “able to rescue chronically activated CAR T cells to improve functionality”. In the assay on RPMI-8226 target cells (Example 8: E:T 0.3:1, Compound A 1 nm or 10 nM, versus no compound, FIG. 10A), the “cytolytic activity, compound present during re-challenge” value is on record as “improvement in cytolytic activity”. For the same compound, the “production of IFN-gamma” value in the assay with RPMI-8226 target cells (Example 8: supernatant at 24 hours, FIG. 10B) was “increased production”. For the same compound, the “production of IL-2” value in the assay with RPMI-8226 target cells (Example 8: supernatant at 24 hours, FIG. 10C) is reported as “increased production”. In the assay with RPMI-8226 target cells (Example 8: supernatant at 24 hours, FIG. 10D), the “production of TNF-alpha” value is “increased production”. For the same compound, the cytolytic activity result in assay [1] (Compound A 1 or 10 nM, FIG. 11A) is listed as “increased cytolytic activity”. For the same compound, the “cytokine production (IFN-gamma, IL-2, TNF-alpha)” value in assay [1] (FIG. 11B-D) is recorded as “increased”. Moreover, the “anti-BCMA CAR cell counts (number of population doublings)” value in assay [2] (10 nM, E:T 1:2, five rounds over 19 days, two donors, FIG. 5A) is reported as “enhanced”. Moreover, in assay [2] (setting [3]), the IL-2 production entry is reported as “increased” and the TNF-alpha production result is “increased”. In addition, in the assay on Aiolos and Ikaros, the “efficiency of degrading Aiolos and Ikaros” value was “more efficient at degrading Aiolos and Ikaros than lenalidomide and pomalidomide”.

The values above are taken from patent US20230165872A1, “COMBINATION OF BCMA-DIRECTED T CELL THERAPY AND AN IMMUNOMODULATORY COMPOUND” (Juno Therapeutics, Inc., priority 2020, published 2023).
